Laboratory results reported in patent publication US20240309015A1, “Methods for the Treatment of Fibrotic Disease” (SHY Therapeutics, LLC, priority 2021, published 2024).

Tests used:
[1] = test system: KRas G12C mutant; assay: Ras GTP Binding Domain Inhibition Assay, KRas G12C mutant; details: at 20 μM; for KRas G12C mutant + SOS: % inh.: with SOS; for KRas G12C mutant: % inh.: without SOS
How it was run: (§1)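 His-tagged GTPases, 10-30 μg/mL in Tris-HCl buffer (pH 7.4 or 7.0, MgCl2, DTT), were immobilised on nickel-coated wells overnight at 4° C. Compounds were added at 20 μM or as serial dilutions for IC50 in 1% DMSO for 3 h at room temperature, ±Sos(556-1049) in the final hour. Bound Cy3/Cy5-GTP (100 nM, 45 min) was read after washing.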

[2] = test system: KRas wild type; assay: Ras GTP Binding Domain Inhibition Assay, KRas wild type; details: at 20 μM; for KRas wild type + SOS: % inh.: with SOS; for KRas wild type: % inh.: without SOS
How it was run: as §1

[3] = test system: Rho-A; assay: Ras GTP Binding Domain Inhibition Assay, Rho-A; details: at 20 μM; without SOS
How it was run: as §1

[4] = test system: KRas G12D mutant; assay: Ras GTP Binding Domain Inhibition Assay, KRas G12D mutant; details: at 20 μM; for KRas G12D mutant + SOS: % inh.: with SOS; for KRas G12D mutant: % inh.: without SOS
How it was run: as §1

[5] = test system: TNFα; assay: Mouse TNF Alpha Quantification Assay (LPS-stimulated RAW 264.7); assay type: cell-based; set-up: dose or concentration left out as unconfirmed; details: RAW264.7, ELISA, read-out: TNFα: % inh.
[6] = test system: Smad2/3 phosphorylation; assay: Phospho-Smad2/3 Inhibition Assay in PANC-1; assay type: cell-based; details: Homo sapiens; 10 μM compound, 3 h; TGF-b1 stimulated PANC-1; western blot; read-out: % inh of Smad2/3 phosphorylation in PANC-1
Method: Cell lines: Human tumor-derived pancreatic cancer cell line Panc-1 and mouse muscle myoblast C2C12 were purchased from American Type Culture Collection and grown in complete DMEM-High Glucose, supplemented with penicillin (100 U/mL), streptomycin (100 μg/mL), and 10% heat-inactivated FBS at 37° C. in a humidified incubator with 5% CO2.
Method: Cells were plated at 350000 cells/well density in a 12-well plate, allowed 3 hours to adhere to the plate, then starved in the appropriate medium in the presence of 0.5% FBS overnight. The small molecules to be tested were added to the cells in the final concentration of 10 μM in the presence of 0.3% DMSO for 3 hours incubation at 37° C. For IC50 value determination, serial dilutions of compounds were added to cells under the same conditions. Next, Panc-1 cells were stimulated with 10 ng/ml TGF-b1 for 1 hour, and C2C12 cells were stimulated with 10 ng/ml TGF-b1 for 20 minutes (recombinant human TGF-b1, R&D Systems). After stimulation cells were lysed with lysis buffer containing 1% Triton X-100, EDTA, and Halt™ Protease & Phosphatase Inhibitor Cocktail (Thermo Scientific). Protein concentration was assessed by BCA protein assay (Thermo Scientific). Phosphorylation level of Smad2/Smad3 was determined by western blot.
Western blot protocol: Equal amounts of protein (15-50 μg) were separated by SDS-PAGE and transferred to nitrocellulose membranes (Invitrogen by Thermo Fisher Scientific). The membrane was stained with Ponceau S Stain (Boston BioProducts) to verify uniform protein loading. Membranes were blocked with 10% milk and phosphorylation levels of Smad2/Smad3 were assessed by incubating overnight at 4° C. with the following antibodies: Phospho-Smad2 (Ser465/467) and Phosph-Smad3 (Ser423/425), both from Cell Signaling Technology. Then the membranes were incubated with HRP-conjugated secondary antibody (Jackson Immunoresearch, West Grove, PA). Bands were incubated in Amersham ECL Prime Western Blotting Detection Reagent (GE Healthcare) and visualized using the ChemiDoc MP imaging system (Bio-Rad).

[7] = test system: IL-6; assay: Mouse IL6 Quantification Assay (LPS-stimulated RAW 264.7); assay type: cell-based; set-up: dose or concentration left out as unconfirmed; details: RAW264.7, ELISA, read-out: IL-6: % inh.

| SMILES | KRas G12C mutant + SOS: % inh. [1] | KRas G12C mutant: % inh. [1] | KRas wild type + SOS: % inh. [2] | KRas wild type: % inh. [2] | Rho-A: % inh. [3] | KRas G12D mutant + SOS: % inh. ([4]; Table 7) | KRas G12D mutant + SOS: % inh. ([4]; Table 8) | KRas G12D mutant: % inh. ([4]; Table 7) | KRas G12D mutant: % inh. ([4]; Table 8) | inhibition [5] [%] | inhibition at 10 µM [6] [%] | inhibition [7] [%] |
| --- | --- | --- | --- | --- | --- | --- | --- | --- | --- | --- | --- | --- |
| COCCCOc1nc(-c2nccn2C)nc2sc(-c3ccn(C(C)C)n3)c(C)c12 [Compound 32, 6-(1-Isopropyl-1H-pyrazol-3-yl)-4-(3-methoxypropoxy)-5-methyl-2-(1-methyl-1H-imidazol-2-yl)thieno[2,3-d]pyrimidine] | C (C = 46-75% inhibition) | C (C = 46-75% inhibition) | D (D = 76-100% inhibition) | D (D = 76-100% inhibition) | D (D = 76-100% inhibition) | C (C = 46-75% inhibition) | C (C = 46-75% inhibition) | C (C = 46-75% inhibition) | C (C = 46-75% inhibition) | 76 to 100 | 0 | 76 to 100 |
| COCCCCOc1nc(-c2nccn2C)nc2sc(-c3ccn(C(C)C)n3)c(C)c12 [Compound 34, 6-(1-Isopropyl-1H-pyrazol-3-yl)-4-(4-methoxybutoxy)-5-methyl-2-(1-methyl-1H-imidazol-2-yl)thieno[2,3-d]pyrimidine] | A (A = 1-25% inhibition) | 0 (0 = 0% inhibition) | 0 (0 = 0% inhibition) | A (A = 1-25% inhibition) | 0 (0 = 0% inhibition) | 0 (0 = 0% inhibition) | 0 (0 = 0% inhibition) | A (A = 1-25% inhibition) | A (A = 1-25% inhibition) | 0 | 0 | 76 to 100 |
| COc1cccc(-c2sc3nc(-c4nccn4C)nc(N[C@H]4C[C@H](OC)C4)c3c2-c2ccccc2)c1F [Compound 40, 6-(2-Fluoro-3-methoxyphenyl)-N-((1r,3r)-3-methoxycyclobutyl)-2-(1-methyl-1H-imidazol-2-yl)-5-phenylthieno[2,3-d]pyrimidin-4-amine] | D (D = 76-100% inhibition) | C (C = 46-75% inhibition) | D (D = 76-100% inhibition) | C (C = 46-75% inhibition) | B (B = 26-45% inhibition) | D (D = 76-100% inhibition) | D (D = 76-100% inhibition) | C (C = 46-75% inhibition) | C (C = 46-75% inhibition) | 76 to 100 | 76 to 100 | 76 to 100 |

Further lines, with some results ahead:

| KRas G12C mutant + SOS: % inh. [1] | KRas G12C mutant: % inh. [1] | KRas wild type + SOS: % inh. [2] | KRas wild type: % inh. [2] | Rho-A: % inh. [3] | KRas G12D mutant + SOS: % inh. ([4]; Table 7) | KRas G12D mutant + SOS: % inh. ([4]; Table 8) | KRas G12D mutant: % inh. ([4]; Table 7) | KRas G12D mutant: % inh. ([4]; Table 8) | SMILES | inhibition [5] [%] | inhibition at 10 µM [6] [%] | inhibition [7] [%] |
| --- | --- | --- | --- | --- | --- | --- | --- | --- | --- | --- | --- | --- |
| A (A = 1-25% inhibition) | 0 (0 = 0% inhibition) | A (A = 1-25% inhibition) | 0 (0 = 0% inhibition) | 0 (0 = 0% inhibition) | 0 (0 = 0% inhibition) | 0 (0 = 0% inhibition) | 0 (0 = 0% inhibition) | 0 (0 = 0% inhibition) | COCCCCn1c(-c2nccn2C)nc2sc(-c3ccn(C(C)C)n3)c(C)c2c1=O [Compound 33, 6-(1-Isopropyl-1H-pyrazol-3-yl)-3-(4-methoxybutyl)-5-methyl-2-(1-methyl-1H-imidazol-2-yl)thieno[2,3-d]pyrimidin-4(3H)-one] | 0 | 0 | 46 to 75 |
| A (A = 1-25% inhibition) | 0 (0 = 0% inhibition) | A (A = 1-25% inhibition) | A (A = 1-25% inhibition) | 0 (0 = 0% inhibition) | 0 (0 = 0% inhibition) | 0 (0 = 0% inhibition) | A (A = 1-25% inhibition) | A (A = 1-25% inhibition) | COc1cc(Cn2c(-c3nccn3C)nc3sc(-c4ccn(C(C)C)n4)c(C)c3c2=O)ncn1 [Compound 35, 6-(1-Isopropyl-1H-pyrazol-3-yl)-3-((6-methoxypyrimidin-4-yl)methyl)-5-methyl-2-(1-methyl-1H-imidazol-2-yl)thieno[2,3-d]pyrimidin-4(3H)-one] | 1 to 25 | 0 | 1 to 25 |
| A (A = 1-25% inhibition) | 0 (0 = 0% inhibition) | A (A = 1-25% inhibition) | A (A = 1-25% inhibition) | 0 (0 = 0% inhibition) | 0 (0 = 0% inhibition) | 0 (0 = 0% inhibition) | 0 (0 = 0% inhibition) | 0 (0 = 0% inhibition) | COCCCn1c(-c2nccn2C)nc2sc(-c3ccn(C(C)C)n3)c(-c3ccccc3)c2c1=O [Compound 36, 6-(1-Isopropyl-1H-pyrazol-3-yl)-3-(3-methoxypropyl)-2-(1-methyl-1H-imidazol-2-yl)-5-phenylthieno[2,3-d]pyrimidin-4(3H)-one] | 0 | 0 | 46 to 75 |
| 0 (0 = 0% inhibition) | 0 (0 = 0% inhibition) | A (A = 1-25% inhibition) | 0 (0 = 0% inhibition) | 0 (0 = 0% inhibition) | 0 (0 = 0% inhibition) | 0 (0 = 0% inhibition) | 0 (0 = 0% inhibition) | 0 (0 = 0% inhibition) | COCCCOc1nc(-c2nccn2C)nc2sc(-c3ccn(C(C)C)n3)c(-c3ccccc3)c12 [Compound 37, 6-(1-Isopropyl-1H-pyrazol-3-yl)-4-(3-methoxypropoxy)-2-(1-methyl-1H-imidazol-2-yl)-5-phenylthieno[2,3-d]pyrimidine] | 0 | 0 | 76 to 100 |
